This note sets out measurements from patent US20240409542A1, “NOVEL COMPOUNDS” (Sitryx Therapeutics Limited, priority 2021, published 2024).

A word on the EC50: it is the concentration at which the effect is half-maximal. Usually Emax stands for the size of the effect at its maximum, as opposed to the concentration needed. As usually defined, the IC50 is the concentration at which inhibition is half-maximal. Higher therefore signals weaker potency in that assay. What is called solubility (kinetic) is solubility judged after dilution from a stock solution rather than from solid.

Each structure is given as a SMILES string. ≈ marks a conversion by molar mass, not a printed value. Marks after values point to notes of the source that are not given here. Where only a bound is given, the exact number is not on record here.

In one series the target is recombinant human PKM2 (Homo sapiens (Human), UniProt P14618). Briefly: Human PKM2 activation assay (Kinase-Glo Plus luminescence). It counts as biochemical. Conditions: for EC50: activation of recombinant human PKM2, 4-parameter logistic fit, read-out: hPKM2 EC50; for Emax: read-out: hPKM2 Emax (%). The method, then:
Compound activation of recombinant human PKM2 pyruvate kinase activity was determined by biochemical assay. N-terminal His-tagged hPKM2 was sourced from R&D Systems and its substrates phosphoenolpyruvate (PEP) and ADP from Sigma-Aldrich and 2BScientific Ltd, respectively. The Kinase-Glo® Plus luminescence assay was from Promega. All other reagents were from Sigma-Aldrich. Test Compounds were prepared as 10 mM DMSO stocks and dilution series prepared in DMSO for direct dilution into Assay Buffer comprising 50 mM imidazole, 50 mM KCl, 7 mM MgCl2, 0.01% Tween20, 0.05% BSA (pH 7.2).
Human PKM2 was diluted into Assay Buffer comprising 50 mM imidazole, 50 mM KCl, 7 mM MgCl2, 0.01% Tween20, 0.05% BSA (pH 7.2) to a final concentration of 5 pM. Enzyme-Assay Buffer mix was dispensed into a 384-well shallow-well white-walled plate (PerkinElmer) and Test Compounds added by acoustic dispense (Echo®, Labcyte Inc.).
After 60 minutes' incubation on an orbital shaker (300 rpm, 26° C.), enzyme activity was quantified by the luminescent detection of generated ATP. Kinase-Glo® Plus reagent was added to each well and the plates incubated for a further 15 minutes on an orbital shaker in the dark (300 rpm, 26° C.) before luminescence measurement on a plate reader (PHERAstar® FSX, BMG Labtech).
EC50 and Emax values were determined from 4-parameter logistic fits of compound concentration-response curves.
In general terms: Kinase-Glo reads ATP consumption through a luciferase reaction.

In another series the target is recombinant human PKLR (Homo sapiens (Human), UniProt P30613). The series is described as follows: Human PKLR activation assay (Kinase-Glo Plus luminescence). The settings on record: for Emax: read-out: hPKLR Emax (%).
recombinant human PKLR, sequence (P30613 whole entry): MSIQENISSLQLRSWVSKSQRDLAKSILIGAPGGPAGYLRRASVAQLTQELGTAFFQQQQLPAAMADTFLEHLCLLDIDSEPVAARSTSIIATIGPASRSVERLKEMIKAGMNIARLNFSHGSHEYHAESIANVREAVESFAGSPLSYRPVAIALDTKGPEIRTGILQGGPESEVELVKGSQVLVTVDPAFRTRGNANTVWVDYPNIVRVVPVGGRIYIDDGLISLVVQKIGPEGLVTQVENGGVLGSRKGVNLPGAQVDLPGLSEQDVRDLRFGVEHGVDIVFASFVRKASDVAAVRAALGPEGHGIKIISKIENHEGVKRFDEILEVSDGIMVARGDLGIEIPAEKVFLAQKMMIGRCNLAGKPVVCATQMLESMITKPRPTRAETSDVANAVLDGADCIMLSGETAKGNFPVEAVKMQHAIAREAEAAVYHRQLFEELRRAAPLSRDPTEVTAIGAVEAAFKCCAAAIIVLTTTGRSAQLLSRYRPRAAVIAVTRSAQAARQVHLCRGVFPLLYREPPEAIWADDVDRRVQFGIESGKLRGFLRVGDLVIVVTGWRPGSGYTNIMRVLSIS
In another series the test system is A549 cells. The series is described as follows: A549 proliferation assay in low-serine medium (CellTiter-Glo). It counts as cell-based. The settings on record: Homo sapiens, 72 h, 3 days, low-serine medium (20 μM L-serine). On the procedure: The effect of compounds of Formula (I) on A549 cell proliferation in low-serine medium was assessed using a luminescence assay of viable cell number (CellTiter-Glo® 2.0, Promega) duplexed with a fluorescent cytotoxicity assessment (CellTox™ Green, Promega). Cell culture reagents were from ThermoFisher unless specified otherwise. Assay reagents were from Sigma-Aldrich unless specified otherwise. Test Compounds were prepared as 10 mM DMSO stocks and dilution series prepared in DMSO for direct dilution into culture medium.
Cells were passaged every 3-4 days at 80-90% confluence. The cell monolayer was washed twice with room-temperature Ca^2+/Mg-free PBS and 4 ml room-temperature trypsin-EDTA added to the flask. After 5 minutes' incubation (37° C., 5% CO2) to detach cells, trypsin was quenched with 13 ml warmed complete growth medium and the cells harvested and diluted to 2.4×10^4 cells/ml for dispensing into 384-well clear-bottom black-walled plates (600 cells/well).
Following overnight incubation, growth medium was aspirated from each well and the cells washed twice with Assay Medium comprising Basal Medium Eagle supplemented with 3% heat-inactivated dialysed FBS plus 2 mM L-glutamine plus 20 μM L-serine (Sigma-Aldrich). After aspiration of the final wash medium, Assay Medium containing Test Compound was added to each well. DMSO vehicle controls were included on each plate.
Cells were incubated for 3 days in a humidified incubator (37° C., 5% CO2) at which point CellTox™ Green and CellTiter-Glo® reagents were prepared according to the manufacturer's instructions. Triton-X was added to HIGH wells for cytotoxicity determination and the plate incubated for 30 minutes (20° C., ambient humidity and pCO2). CellTox™ Green reagent was added to each well and the plate covered, placed on an orbital shaker @450 rpm for 2 minutes, and incubated in the dark for 15 minutes (20° C., ambient humidity and pCO2). Endpoint fluorescence was measured using a plate reader (PHERAstar® FSX, BMG Labtech).
Following cytotoxicity determination, CellTiter-Glo® reagent was added to each well and the plate placed on an orbital shaker @450 rpm for 2 minutes to lyse cells. Plates were incubated in the dark for 15-30 minutes (20° C., ambient humidity and pCO2) prior to endpoint luminescence measurement (PHERAstar® FSX, BMG Labtech).
Proliferation was calculated by normalizing luminescence signals to LOW controls obtained from a parallel plate processed at the time of Test Compound challenge and HIGH (DMSO vehicle) wells from the compound plate. IC50 values were determined from a 4-parameter logistic fit of compound concentration-response curves.
(In general: Cellular ATP, detected with luciferase, serves as a proxy for viable cell number.)

The nature of series [1]: Kinetic aqueous solubility. Conditions: PBS pH 7.4, 200 μM (2% DMSO), RT; for solubility kinetic at 1.5 h: phosphate buffered saline (PBS) pH 7.4, pH 7.4, aqueous buffer, kinetic from dmso stock, Kinetic solubility (Ksol), (μg/ml).
Procedure: Phosphate buffered saline (PBS) pH 7.4 was prepared using PBS tablets as per the manufacturer's instructions. Compounds and marker stocks are prepared at 10 mM in DMSO.
Compounds were incubated at 200 μM (2% DMSO) in Millipore—MSS LB PC 10 or Porvair—ref: 36004 plates in the presence of the prepared PBS pH 7.4 solution for 1.5 h, at RT, with gentle shaking. […] The samples were then analysed in a 96 well UV Star analysis plate on a plate reader from 220 nm to 500 nm at 10 nm increments.
The concentration of the samples was calculated against the standard curves.

recombinant human PKM2, sequence (P14618 whole entry): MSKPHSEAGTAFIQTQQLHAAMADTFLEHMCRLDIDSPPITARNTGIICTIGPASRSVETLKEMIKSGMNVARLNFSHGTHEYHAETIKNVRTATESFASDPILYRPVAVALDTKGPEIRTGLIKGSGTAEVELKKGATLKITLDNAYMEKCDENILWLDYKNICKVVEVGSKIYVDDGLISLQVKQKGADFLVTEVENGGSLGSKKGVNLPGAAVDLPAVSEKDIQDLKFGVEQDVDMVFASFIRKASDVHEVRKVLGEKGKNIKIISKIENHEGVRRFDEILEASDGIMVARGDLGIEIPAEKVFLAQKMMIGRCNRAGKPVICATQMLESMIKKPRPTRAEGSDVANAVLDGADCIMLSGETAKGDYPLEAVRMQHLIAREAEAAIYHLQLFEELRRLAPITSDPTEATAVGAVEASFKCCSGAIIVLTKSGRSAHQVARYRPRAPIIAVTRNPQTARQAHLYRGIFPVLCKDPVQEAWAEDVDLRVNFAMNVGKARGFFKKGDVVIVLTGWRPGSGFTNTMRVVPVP
Procedure for recombinant human PKLR: Compound activation of recombinant human PKLR pyruvate kinase activity was determined by biochemical assay. N-terminal His-tagged enzyme was sourced from R&D Systems and its substrates phosphoenolpyruvate (PEP) and ADP from Sigma-Aldrich and 2BScientific Ltd, respectively. The Kinase-Glo® Plus luminescence assay was from Promega. All other reagents were from Sigma-Aldrich. Test Compounds were prepared as 10 mM DMSO stocks and dilution series prepared in DMSO for direct dilution into Assay Buffer comprising 50 mM imidazole, 50 mM KCl, 7 mM MgCl2, 0.01% Tween20, 0.05% BSA (pH 7.2).
Human PKLR was diluted into Assay Buffer to a final concentration of 5 pM. Enzyme-Assay Buffer mix was dispensed into 384-well shallow-well white-walled plates and Test Compounds added by acoustic dispense (Echo®, Labcyte Inc).

`Cn1c2c(c3cnn(Cc4cccc(N)c4)c(=O)c31)CCN(S(=O)(=O)C1CC1)C2` [Example 9, 3-(3-aminobenzyl)-7-(cyclopropylsulfonyl)-5-methyl-3,5,6,7,8,9-hexahydro-4H-pyrido[4′,3′:4,5]pyrrolo[2,3-d]pyridazin-4-one]: at recombinant human PKM2, the concentration giving a half-maximal response (EC50) amounted to 1.77 µM and the Emax amounted to 47.3%. Also, on recombinant human PKLR, the half-maximal effective concentration (EC50) was greater than 0.32 µM and the Emax was less than 90%. In the series with A549 cells, it took 0.0258 µM to reach half-maximal inhibition (IC50). Further, the solubility (kinetic) at 1.5 h in series [1] turned out to be 43.1 µg/mL (≈ 104 µM).
With `Cn1c2c(c3cnn(Cc4c[nH]c5cnccc45)c(=O)c31)CCN(S(C)(=O)=O)C2` [Example 36, 3-((1H-pyrrolo[2,3-c]pyridin-3-yl)methyl)-5-methyl-7-(methylsulfonyl)-3,5,6,7,8,9-hexahydro-4H-pyrido[4′,3′:4,5]pyrrolo[2,3-d]pyridazin-4-one], at recombinant human PKM2, the EC50 is 0.071 µM and the Emax was 100%. In addition, on recombinant human PKLR, the EC50 fell in the range of 0.0435 to 0.06 µM and the Emax was in the range of 90 to 100%. The solubility (kinetic) at 1.5 h in series [1] is greater than 82.5 µg/mL.
On to `Cn1c2c(c3cnn(Cc4cc[nH]n4)c(=O)c31)CCN(S(=O)(=O)c1ccccc1)C2` [Example 12, 3-((1H-pyrazol-3-yl)methyl)-5-methyl-7-(phenylsulfonyl)-3,5,6,7,8,9-hexahydro-4H-pyrido[4′,3′:4,5]pyrrolo[2,3-d]pyridazin-4-one], for which, on recombinant human PKM2, the EC50 was 1.49 µM and the Emax came out at 79.7%. Also, on recombinant human PKLR, the EC50 lay within 0.06 to 0.32 µM and the Emax lay in the range of 100 to 117%. In the series with A549 cells, the half-inhibitory concentration (IC50) stood at 0.0135 µM. The compound further gave a solubility (kinetic) at 1.5 h in series [1] of 61.6 µg/mL (≈ 145 µM).
Take `Cn1c2c(c3cnn(Cc4cccc(N)c4)c(=O)c31)CCN(S(=O)(=O)c1ccccc1)C2` [Example 11, 3-(3-aminobenzyl)-5-methyl-7-(phenylsulfonyl)-3,5,6,7,8,9-hexahydro-4H-pyrido[4′,3′:4,5]pyrrolo[2,3-d]pyridazin-4-one]: on recombinant human PKM2, the 50% effective concentration (EC50) was found to be 0.846 µM and the Emax was 88.4%. Also, on recombinant human PKLR, the concentration for a half-maximal effect (EC50) fell in the range of 0.06 to 0.32 µM and the Emax was less than 90%. The same compound came in with an IC50 with A549 cells of 0.014 µM. This compound also came in with a solubility (kinetic) at 1.5 h in series [1] of 9.9 µg/mL (≈ 22 µM).
Turning to `COc1ccc(Cn2ncc3c4c(n(C)c3c2=O)CN(S(C)(=O)=O)CC4)cn1` [Example 2, 3-((6-methoxypyridin-3-yl)methyl)-5-methyl-7-(methylsulfonyl)-3,5,6,7,8,9-hexahydro-4H-pyrido[4′,3′:4,5]pyrrolo[2,3-d]pyridazin-4-one], the values for the EC50 on recombinant human PKM2 and at recombinant human PKLR were 0.305 µM and 0.06 to 0.32 µM, respectively. In addition, the maximal effect (Emax) on recombinant human PKM2 was 93.7%; on recombinant human PKLR, 100 to 117%. Further, inhibition in the series on A549 cells was half-maximal at 0.0045 µM (IC50). In series [1] (1.5 h), the “Kinetic solubility (Ksol);” value worked out at 36.19 µg/mL. The solubility (kinetic) at 1.5 h in series [1] turned out to be 36.1 µg/mL (≈ 89.5 µM).
Regarding `CC(=O)N1CCc2c(n(C)c3c(=O)n(Cc4cccc(N)c4)ncc23)C1` [Example 8, 7-acetyl-3-(3-aminobenzyl)-5-methyl-3,5,6,7,8,9-hexahydro-4H-pyrido [4′,3′:4,5]pyrrolo[2,3-d]pyridazin-4-one], on recombinant human PKM2, the EC50 was found to be 1.74 µM and the maximum response (Emax) amounted to 83.1%. Also, on recombinant human PKLR, the EC50 is greater than 0.32 µM and the Emax was less than 90%. For the same compound, the concentration for half-maximal inhibition (IC50) in the series on A549 cells stood at 0.0254 µM. The compound also came in with a solubility (kinetic) at 1.5 h in series [1] greater than 70.3 µg/mL.
With `COc1cc(F)c(Cn2ncc3c4c(n(C)c3c2=O)CN(S(C)(=O)=O)CC4)c(F)c1` [Example 6, 3-(2,6-difluoro-4-methoxybenzyl)-5-methyl-7-(methylsulfonyl)-3,5,6,7,8,9-hexahydro-4H-pyrido[4′,3′:4,5]pyrrolo[2,3-d]pyridazin-4-one], at recombinant human PKM2, the EC50 came out at 0.317 µM and the maximal response (Emax) was 85.3%. In addition, at recombinant human PKLR, the half-maximal effective concentration (EC50) fell in the range of 0.0435 to 0.06 µM and the maximal response (Emax) is less than 90%. This compound also showed an IC50 with A549 cells of 0.0168 µM. Also, the “Kinetic solubility (Ksol); (μg/ml)” value in series [1] (1.5 h) was 0.87* μg/ml. For the same compound, the kinetic solubility at 1.5 h in series [1] worked out at 0.64 µg/mL (≈ 1.46 µM).
On to `CC(O)c1cccc(Cn2ncc3c4c(n(C)c3c2=O)CN(S(C)(=O)=O)CC4)c1` (stereo not shown) [Example 3, 3-(3-(1-hydroxyethyl)benzyl)-5-methyl-7-(methylsulfonyl)-3,5,6,7,8,9-hexahydro-4H-pyrido[4′,3′:4,5]pyrrolo[2,3-d]pyridazin-4-one], for which the concentration giving a half-maximal response (EC50) on recombinant human PKM2 is 0.303 µM; at recombinant human PKLR, 0.06 to 0.32 µM. For the same compound, the Emax was 81.4% on recombinant human PKM2 and 100 to 117% on recombinant human PKLR. In the series on A549 cells, this compound showed an IC50 of 0.0105 µM. Besides, in series [1] (1.5 h), the “Kinetic solubility (Ksol); (μg/ml)” value was 17.91* μg/ml. This compound also came in with a solubility (kinetic) at 1.5 h in series [1] of 19 µg/mL (≈ 45.6 µM).
With `Cn1c2c(c3cnn(Cc4cc[nH]n4)c(=O)c31)CCN(S(C)(=O)=O)C2` [Example 4, 3-((1H-pyrazol-3-yl)methyl)-5-methyl-7-(methylsulfonyl)-3,5,6,7,8,9-hexahydro-4H-pyrido[4′,3′:4,5]pyrrolo[2,3-d]pyridazin-4-one], at recombinant human PKM2, the EC50 was found to be 1.14 µM and the Emax is 89.8%. For the same compound, on recombinant human PKLR, the EC50 lay in the range of 0.06 to 0.32 µM and the Emax lay in the range of 100 to 117%. The kinetic solubility at 1.5 h in series [1] is 42 µg/mL (≈ 116 µM).
For `Cn1c2c(c3cnn(Cc4c[nH]c5ncccc45)c(=O)c31)CCN(S(C)(=O)=O)C2` [Example 37, 3-((1H-pyrrolo[2,3-b]pyridin-3-yl)methyl)-5-methyl-7-(methylsulfonyl)-3,5,6,7,8,9-hexahydro-4H-pyrido[4′,3′:4,5]pyrrolo[2,3-d]pyridazin-4-one], at recombinant human PKM2, the EC50 is 0.207 µM and the Emax was 106%. Further, the kinetic solubility at 1.5 h in series [1] turned out to be 59.3 µg/mL (≈ 144 µM).
In the same order, the values of `Cn1c2c(c3cnn(Cc4cccc(N5CCCC5)n4)c(=O)c31)CCN(S(C)(=O)=O)C2` [Example 19, 5-methyl-7-(methylsulfonyl)-3-((6-(pyrrolidin-1-yl)pyridin-2-yl)methyl)-3,5,6,7,8,9-hexahydro-4H-pyrido[4′,3′:4,5]pyrrolo[2,3-d]pyridazin-4-one] are 0.869 µM, 63.8% and 5.42 µg/mL (≈ 12.2 µM).
On to `Cn1c2c(c3cnn(Cc4n[nH]c5ccccc45)c(=O)c31)CCN(S(C)(=O)=O)C2` [Example 20, 3-((1H-indazol-3-yl)methyl)-5-methyl-7-(methylsulfonyl)-3,5,6,7,8,9-hexahydro-4H-pyrido[4′,3′:4,5]pyrrolo[2,3-d]pyridazin-4-one], for which, on recombinant human PKM2, the EC50 turned out to be 0.272 µM and the maximal effect (Emax) came out at 111%. This compound came in with a kinetic solubility at 1.5 h in series [1] of 8.43 µg/mL (≈ 20.4 µM).
Consider `Cn1c2c(c3cnn(Cc4cccc5[nH]ncc45)c(=O)c31)CCN(S(C)(=O)=O)C2` [Example 32, 3-((1H-indazol-4-yl)methyl)-5-methyl-7-(methylsulfonyl)-3,5,6,7,8,9-hexahydro-4H-pyrido[4′,3′:4,5]pyrrolo[2,3-d]pyridazin-4-one], for which, on recombinant human PKM2, the EC50 worked out at 0.365 µM and the maximal effect (Emax) amounted to 94.6%. In series [1], this compound had a kinetic solubility at 1.5 h of 16.2 µg/mL (≈ 39.2 µM).
With `Cn1c2c(c3cnn(Cc4ccsc4C(N)=O)c(=O)c31)CCN(S(C)(=O)=O)C2` [Example 14, 3-((5-methyl-7-(methylsulfonyl)-4-oxo-4,5,6,7,8,9-hexahydro-3H-pyrido [4′,3′:4,5]pyrrolo[2,3-d]pyridazin-3-yl)methyl)thiophene-2-carboxamide], on recombinant human PKM2, the 50% effective concentration (EC50) stood at 0.512 µM and the maximal effect (Emax) amounted to 102%. The compound also yielded a kinetic solubility at 1.5 h in series [1] of 41.3 µg/mL (≈ 98.1 µM).
